# Earlier results in PMC11187573, “Identification of SARS-CoV-2 Mpro inhibitors through deep reinforcement learning for de novo drug design and computational chemistry approaches” (RSC Medicinal Chemistry, 2024).
# Tested on: SARS, SARS-CoV-2 and MERS Mpro
# Conditions: Origin COVID_Moonshot; ref COVID Moonshot; cited from earlier work
row,Compound,IC50
1,"CC(NC(=O)CCl)c1cc(Cl)cc(-c2ccc(S(N)(=O)=O)cc2)c1 (centres unmarked) [DAV-CRI-14a23e73-1, CC(c1cc(Cl)cc(-c(cc2)ccc2S(N)(=O)=O)c1)NC(CCl)=O]",0.466 µM
2,"C=CC(=O)N(c1ccc(C(C)(C)C)cc1)C(C(=O)NCCc1cccc(F)c1)c1cccnc1 (centres unmarked) [LON-WEI-adc59df6-47, CC(C)(C)c(cc1)ccc1N(C(C(NCCc1cccc(F)c1)=O)c1cnccc1)C(C=C)=O]",2.96 µM
3,"O=[N+]([O-])c1cnc(Sc2nnc(-c3ccc(Cl)cc3)o2)s1 [LON-WEI-4d77710c-67, [O-][N+](c1cnc(Sc2nnc(-c(cc3)ccc3Cl)o2)s1)=O]",0.881 µM
4,"CCNc1ncc(C#N)cc1CN1CCN(C(=O)CCl)CC1 [DAR-DIA-fb20be43-4, CCNc(nc1)c(CN(CC2)CCN2C(CCl)=O)cc1C#N]",3.22 µM
5,"CCOC(=O)c1nc(S(C)(=O)=O)ncc1Cl [LON-WEI-ff7b210a-5, CCOC(c(nc(nc1)S(C)(=O)=O)c1Cl)=O]",1.6 µM

# Same assay, conditions: Origin ChEMBL; ref ChEMBL; cited from earlier work
row,Compound,IC50
1,"CC(C)(C)OC(=O)NCCc1nnc(S(=O)(=O)Cc2ccc(Cl)cc2Cl)o1 [CHEMBL259018, CC(C)(C)OC(NCCc(o1)nnc1S(Cc(ccc(Cl)c1)c1Cl)(=O)=O)=O]",4.22 µM
2,"O=C(CSc1nccc(-c2csc(-c3ccccc3)n2)n1)Nc1cc(Cl)cc(Cl)c1 [CHEMBL208732, O=C(CSc1nc(-c2csc(-c3ccccc3)n2)ccn1)Nc1cc(Cl)cc(Cl)c1]",3 µM
3,"Cc1coc2c1C(=O)C(=O)c1c-2ccc2c1CCCC2(C)C [CHEMBL187266, CC(C)(CCC1)c(cc2)c1c(C1=O)c2-c(occ2C)c2C1=O]",1.6 µM
4,"CC(Cc1ccc(O)c(O)c1)C(C)Cc1ccc(O)c(O)c1 (centres unmarked) [CHEMBL52, CC(Cc(cc1)cc(O)c1O)C(C)Cc(cc1)cc(O)c1O]",2.59 µM
5,"O=C(/C=C/c1ccc(O)c(O)c1)O[C@H](Cc1ccc(O)c(O)c1)C(=O)O [CHEMBL324842, OC([C@@H](Cc(cc1)cc(O)c1O)OC(/C=C/c(cc1)cc(O)c1O)=O)=O]",3.86 µM
6,"CCC(=O)OCN1C(=O)C=CC1=O [CHEMBL1374426, CCC(OCN(C(C=C1)=O)C1=O)=O]",0.29 µM
7,"Nc1nnc(Sc2ncc([N+](=O)[O-])s2)s1 [CHEMBL510038, Nc1nnc(Sc2ncc([N+]([O-])=O)s2)s1]",0.03 µM

# Tested on: Mpro
# Conditions: ML dataset, Origin COVID_Moonshot; ref COVID Moonshot; cited from earlier work
row,Compound,IC50
1,O=C1CCCCN1c1ccc(N(Cc2ccccc2)C(=O)Cc2n[nH]c3ccccc23)cc1 [ALP-POS-a3de0cb1-16],39.4 µM
2,CC(C)(C)c1ccc(N(C(=O)c2nccs2)C(C(=O)NCCc2cccc(F)c2)c2cccnc2)cc1 (centres unmarked) [ALP-POS-02c6a514-49],0.8 µM
3,Cn1c(=O)[nH]c2cncc(NC(=O)C3CCOc4ccc(Cl)cc43)c21 (centres unmarked),20.7 µM
4,Cc1ccncc1NC(=O)Cc1cccc(Br)c1,18.3 µM
5,Cc1ccncc1NC(=O)Cc1cc(Cl)cc(NS(C)(=O)=O)c1 [WIL-MOD-03b86a88-5],21.8 µM
6,O=C(NCCc1cccc(F)c1)C(c1cccnc1)N(C(=O)c1ccco1)C1CCN(c2ccccc2)CC1 (centres unmarked) [ALP-POS-b0bc6a46-28],79.6 µM
7,CCc1cc(F)ccc1-c1cc(Cl)cc(CC(=O)Nc2cnccc2C)c1 [MAT-POS-f42f3716-4],28.8 µM
8,COCCNC(=O)C(c1cccnc1)N(C(=O)c1cocn1)c1ccc(C(C)(C)C)cc1 (centres unmarked) [ALP-POS-88a7a97e-31],8.46 µM
9,O=C(Nc1cnccc1CO)[C@@H]1COc2ccc(Cl)cc21 [JAG-UCB-a3ef7265-3],30.4 µM
10,Cc1ccccc1CC(=O)Nc1cncc2ccccc12 [RAL-THA-2d450e86-38],29.5 µM
11,COc1ccccc1CC(=O)Nc1cncc2ccccc12 [RAL-THA-2d450e86-39],35 µM
12,O=C(Cc1cccc(Cl)c1)Nc1cncc2nc[nH]c12,10.6 µM
13,CC(C)c1ccncc1NC(=O)Cc1cccc(Cl)c1 [MAT-POS-bb423b95-5],22.9 µM
14,O=C(Nc1n[nH]c2ccnc(Br)c12)C1CCOc2ccc(Cl)cc21 (centres unmarked) [JAG-UCB-52b62a6f-15],86.8 µM
15,COc1ccccc1OCCC(=O)Nc1cncc2ccccc12 [MAR-UCB-f313ec4d-3],90.9 µM
16,Cc1ccncc1NC(=O)C(C)c1cc(Cl)cc(OC2CC(=O)N2)c1 (centres unmarked),82.6 µM
17,Cc1ccncc1NC(=O)Cc1cc(Cl)cc(NC2CCCC2O)c1 (centres unmarked),29.3 µM
18,O=C(Cc1cccc(Cl)c1)Nc1n[nH]c2ccc(F)cc12 [EDJ-MED-c8e7a002-9],94 µM
19,CCCC(C(=O)Nc1cnccc1C)c1cccc(Cl)c1 (centres unmarked),11.4 µM
20,N#Cc1ncn(CC(=O)Nc2ccc(Br)cc2Cl)n1 [MAT-POS-e10a589d-4],9.3 µM

row,Compound,IC50
1,O=C(Nc1cncc2ccccc12)C1CCOc2c1ccc(Cl)c2Cl (centres unmarked) [ALP-POS-869ac754-2],3.31 µM
2,Cc1c(N)cncc1NC(=O)Cc1cccc(C#N)c1,24.1 µM
3,Cc1ccncc1NC(=O)C(C)c1cccc(Cl)c1 (centres unmarked),19.6 µM
4,N#Cc1ccc(N(C(=O)c2ccco2)C(C(=O)NCCc2cccc(F)c2)c2cccnc2)cc1 (centres unmarked) [ALP-POS-b0bc6a46-24],10.4 µM
5,O=C(Cc1cccc(Cl)c1)Nc1cncc2c1OCCC2 [EDJ-MED-976da9a6-1],10.9 µM
6,O=C(c1cc(=O)[nH]c2ccccc12)N1CCN(Cc2cccc(C(F)(F)F)c2)CC1 [ERI-UCB-a0b0dbcb-13],34.2 µM
7,O=C(Cc1ccc(C(F)(F)F)cc1)Nc1cncc2ccccc12 [RAL-THA-2d450e86-32],24.8 µM
8,O=C(Nc1cncc2ccccc12)C1CCN(Cc2cnc[nH]2)c2ccc(Cl)cc21 (centres unmarked) [ALP-UNI-b33a865d-1],1.12 µM
9,O=C(Cn1nnc2ccccc21)N(Cc1ccsc1)c1ccc(N2CCOCC2)cc1 [ALP-POS-6d04362c-4],16.5 µM
10,Cc1ccncc1NC(=O)CC(C)C(C)C (centres unmarked),99 µM
11,CC(C)(C)c1ccc(N(C(=O)c2cocn2)C(C(=O)NCCc2cccc(F)c2)c2cncnc2)cc1 (centres unmarked) [ALP-POS-d0876c20-17],2.92 µM
12,O=C(c1cc(=O)[nH]c2ccccc12)N1CCN(Cc2cccc(Cl)c2)CC1 [ERI-UCB-a0b0dbcb-12],4.57 µM
13,"O=C(c1cc(=O)[nH]c2ccccc12)N1CCN(c2ccccc2)CC1 [MAT-POS-916a2c5a-4, MAT-POS-916a2c5a-4, Mpro-x3303]",19 µM
14,O=C(Cc1ccc(Cl)c(F)c1)Nc1cncc2ccccc12 [RAL-THA-2d450e86-9],2.03 µM
15,CC(C)(C)c1ccc(N(C(=O)c2c[nH]c(=O)cn2)C(C(=O)NCCc2cccc(F)c2)c2cccnc2)cc1 (centres unmarked) [ALP-POS-305f6ec3-33],77.1 µM
16,Cc1ccc(S(=O)(=O)CNC(=O)C(c2cccnc2)N(C(=O)c2cocn2)c2ccc(C(C)(C)C)cc2)cc1 (centres unmarked) [ALP-POS-88a7a97e-42],62.9 µM
17,O=C(Cc1cc(Cl)cc(Cl)c1)Nc1cncc2ccccc12 [MAT-POS-fce787c2-2],1.37 µM
18,CN(C)C(=O)C[C@@]1(C(=O)Nc2cncc3ccccc23)CCOc2ccc(Cl)cc21 [MAT-POS-f9802937-4],20.5 µM
19,O=C(Cc1cccc(Cl)c1)Nc1cncc2c1CCCN2 [MAT-POS-14ad9fe9-1],5.66 µM
20,COc1ccc(N(C(=O)c2cocn2)C(C(=O)NCCc2cccc(F)c2)c2cccnc2)cc1 (centres unmarked) [ALP-POS-ced8ea4d-19],22.2 µM

row,Compound,IC50
1,Cc1ccncc1NC(=O)Cc1cccc(Cl)c1,19.2 µM
2,Cc1ccncc1N1CCC(c2cccc(Cl)c2)S1(=O)=O (centres unmarked) [EDJ-MED-49816e9b-4],76.6 µM
3,CC(C)Oc1ccc(N(C(=O)c2cocn2)C(C(=O)NCCc2cccc(F)c2)c2cccnc2)cc1 (centres unmarked) [ALP-POS-ced8ea4d-12],0.609 µM
4,O=C(Nc1cncc2[nH]c(=O)[nH]c12)C1CCOc2ccc(Cl)cc21 (centres unmarked) [EDG-MED-0e5afe9d-2],62.8 µM
5,CSc1ccc(CN(C(=O)c2ccco2)C(C(=O)NCCc2cccc(F)c2)c2cccnc2)cc1C#N (centres unmarked) [ALP-POS-b0bc6a46-20],54.9 µM
6,CC(C)(C)c1ccc(N(C(=O)c2cn[nH]c2)C(C(=O)NCCc2cccc(F)c2)c2cccnc2)cc1 (centres unmarked) [MAT-POS-f2460aef-5],5.33 µM
7,Cc1ccncc1NC(=O)Cc1cc(Cl)cc(NC2CC2C(F)(F)F)c1 (centres unmarked),22.5 µM
8,COC(=O)CNC(=O)C(c1cccnc1)N(C(=O)c1cocn1)c1ccc(C(C)(C)C)cc1 (centres unmarked) [ALP-POS-88a7a97e-33],10.8 µM
9,O=C(Nc1cncc2ccccc12)N1CCOc2ccc(Cl)cc21 [BEN-DND-f2e727cd-1],11.4 µM
10,CC(C)(C)c1ccc(N(C(=O)c2cc(CO)[nH]n2)C(C(=O)NCCc2cccc(F)c2)c2cccnc2)cc1 (centres unmarked) [ALP-POS-305f6ec3-38],18.8 µM
11,O=C(Cc1cncc2ccccc12)Nc1cccc(Cl)c1 [PET-UNK-8922bd3c-1],6.84 µM
12,O=C(Cc1cccc(Cl)c1)Nc1cnc2ccccn12,8.03 µM
13,Cc1ccncc1NC(=O)Cc1cc(Cl)cc(-c2cnn(C)c2C(F)F)c1 [MAT-POS-f42f3716-7],17.6 µM
14,Cc1ccncc1NC(=O)Cc1cccc(F)c1,95.8 µM
15,Cc1ccc(CC(=O)Nc2cncc3ccccc23)cc1 [RAL-THA-2d450e86-3],58.4 µM
16,CC(C)(C)c1ccc(N(C(=O)c2cocn2)C(C(=O)NCC2CCOC2)c2cccnc2)cc1 (centres unmarked) [ALP-POS-88a7a97e-26],5.42 µM
17,CC(C(N)=O)c1cc(Cl)cc(CC(=O)Nc2cncc3ccccc23)c1 (centres unmarked) [MAT-POS-281d2ee9-1],2.62 µM
18,Cc1ccncc1NC(=O)Cc1cc(Cl)cc(OC2CC(=O)N2)c1 (centres unmarked),2.28 µM
19,O=C(NCCc1cccc(F)c1)C(c1cccnc1)N(Cc1ccccc1C1CCC1)C(=O)c1ccco1 (centres unmarked) [ALP-POS-b0bc6a46-10],1.93 µM
20,COCCN1CCC(C(=O)Nc2cncc3ccccc23)c2cc(Cl)ccc21 (centres unmarked) [RAL-THA-4aa06b95-7],0.564 µM

# Same assay, conditions: ML dataset, Origin ChEMBL; ref ChEMBL; cited from earlier work
row,Compound,IC50
1,O=C(O)c1ccc(S(=O)(=O)c2cc(Br)c(O)c(Br)c2)cc1 [CHEMBL212240],16 µM
2,"O=C(Oc1cncc(Cl)c1)c1cc2ccccc2o1 [CHEMBL426898, O=C(c1cc(cccc2)c2o1)Oc1cc(Cl)cnc1, reference compound]",0.17 µM
3,O=[N+]([O-])c1cc(C(F)(F)F)ccc1S(=O)(=O)c1ccc(Cl)cc1 [CHEMBL380403],12 µM
4,Nc1ncc(S(=O)(=O)c2ccc(Cl)cc2)c(N)n1 [CHEMBL213581],6 µM
5,"O=C(Oc1cncc(Cl)c1)c1ccc(-c2ccc(Cl)cc2)o1 [CHEMBL222769, O=C(c1ccc(-c(cc2)ccc2Cl)o1)Oc1cc(Cl)cnc1, reference compound]",0.063 µM
